Results: ChEMBL document CHEMBL4619814, “Identification and Development of 1,4-Diaryl-1,2,3-triazolo-Based Ureas as Novel FLT3 Inhibitors” (ACS Med Chem Lett, 2020)
Activity calls are given as the source filed them. The calls are words filed in the database; no cut-off is given here.

What was measured:
MOLM-13 = test: cells; settings: Homo sapiens, MOLM-13, 72 h
Description: Cytotoxicity against human MOLM13 cells assessed as reduction in cell viability incubated for 72 hrs by CCK8 assay

MV4-11 [1] = test: Induction of cell cycle arrest in human MV4-11 cells assessed as G2/M phase at 4 nM incubated for 48 hrs by propidium iodide staining based flow cytometry analysis (reference value: 24.88 %); format: functional
[2] = target: T1, Receptor-type tyrosine-protein kinase FLT3 (Homo sapiens, UniProt P36888, ITD); format: cell-based, Sf9
T1 sequence (P36888 whole entry, looked up, change not shown): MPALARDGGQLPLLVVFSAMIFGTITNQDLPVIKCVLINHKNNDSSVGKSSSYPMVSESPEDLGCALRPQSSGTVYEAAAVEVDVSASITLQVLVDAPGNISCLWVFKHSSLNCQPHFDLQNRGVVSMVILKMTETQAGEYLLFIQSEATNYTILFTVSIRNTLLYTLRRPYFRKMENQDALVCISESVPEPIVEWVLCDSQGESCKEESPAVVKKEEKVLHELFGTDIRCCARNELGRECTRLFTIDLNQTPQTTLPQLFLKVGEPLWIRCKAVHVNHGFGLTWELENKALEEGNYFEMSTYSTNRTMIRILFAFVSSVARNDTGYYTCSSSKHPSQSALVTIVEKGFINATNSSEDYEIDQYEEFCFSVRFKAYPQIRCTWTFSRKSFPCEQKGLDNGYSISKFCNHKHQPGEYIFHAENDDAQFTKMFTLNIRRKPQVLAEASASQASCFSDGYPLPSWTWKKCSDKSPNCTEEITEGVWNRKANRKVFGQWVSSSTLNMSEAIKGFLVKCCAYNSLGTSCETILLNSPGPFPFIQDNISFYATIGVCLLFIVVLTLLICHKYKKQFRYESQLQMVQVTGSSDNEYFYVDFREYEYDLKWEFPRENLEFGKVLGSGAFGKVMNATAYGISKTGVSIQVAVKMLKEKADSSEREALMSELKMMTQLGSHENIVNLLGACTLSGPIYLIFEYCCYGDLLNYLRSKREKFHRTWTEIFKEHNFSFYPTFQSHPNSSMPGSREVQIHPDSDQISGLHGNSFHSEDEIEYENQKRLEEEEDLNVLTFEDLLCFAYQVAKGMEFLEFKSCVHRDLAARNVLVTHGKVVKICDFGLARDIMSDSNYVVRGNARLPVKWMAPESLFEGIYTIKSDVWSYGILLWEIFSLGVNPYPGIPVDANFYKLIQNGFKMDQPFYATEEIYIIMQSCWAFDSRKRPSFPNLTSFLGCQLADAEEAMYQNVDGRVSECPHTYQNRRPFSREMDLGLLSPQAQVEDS

MV4-11 [3] = test: Induction of apoptosis in human MV4-11 cells assessed as early apoptotic cells at 20 nM incubated for 48 hrs by annexin V and 7-AAD staining based flow cytometry analysis (reference value: 6.36 %); format: functional
MV4-11 [4] = test: Induction of apoptosis in human MV4-11 cells assessed as early apoptotic cells at 100 nM incubated for 48 hrs by annexin V and 7-AAD staining based flow cytometry analysis (reference value: 6.36 %); format: functional
[5] = target: T1, Receptor-type tyrosine-protein kinase FLT3
Description: Binding affinity to recombinant human FLT3 ITD mutant expressed in bacterial expression system by Kinomescan method

[6] = target: Macrophage colony-stimulating factor 1 receptor (Homo sapiens, UniProt P07333); test: Binding affinity to recombinant human CSF1R (564 to 939 residues) expressed in bacterial expression system by Kinomescan method
Chain of Macrophage colony-stimulating factor 1 receptor (P07333 whole entry, the tested form may be a part): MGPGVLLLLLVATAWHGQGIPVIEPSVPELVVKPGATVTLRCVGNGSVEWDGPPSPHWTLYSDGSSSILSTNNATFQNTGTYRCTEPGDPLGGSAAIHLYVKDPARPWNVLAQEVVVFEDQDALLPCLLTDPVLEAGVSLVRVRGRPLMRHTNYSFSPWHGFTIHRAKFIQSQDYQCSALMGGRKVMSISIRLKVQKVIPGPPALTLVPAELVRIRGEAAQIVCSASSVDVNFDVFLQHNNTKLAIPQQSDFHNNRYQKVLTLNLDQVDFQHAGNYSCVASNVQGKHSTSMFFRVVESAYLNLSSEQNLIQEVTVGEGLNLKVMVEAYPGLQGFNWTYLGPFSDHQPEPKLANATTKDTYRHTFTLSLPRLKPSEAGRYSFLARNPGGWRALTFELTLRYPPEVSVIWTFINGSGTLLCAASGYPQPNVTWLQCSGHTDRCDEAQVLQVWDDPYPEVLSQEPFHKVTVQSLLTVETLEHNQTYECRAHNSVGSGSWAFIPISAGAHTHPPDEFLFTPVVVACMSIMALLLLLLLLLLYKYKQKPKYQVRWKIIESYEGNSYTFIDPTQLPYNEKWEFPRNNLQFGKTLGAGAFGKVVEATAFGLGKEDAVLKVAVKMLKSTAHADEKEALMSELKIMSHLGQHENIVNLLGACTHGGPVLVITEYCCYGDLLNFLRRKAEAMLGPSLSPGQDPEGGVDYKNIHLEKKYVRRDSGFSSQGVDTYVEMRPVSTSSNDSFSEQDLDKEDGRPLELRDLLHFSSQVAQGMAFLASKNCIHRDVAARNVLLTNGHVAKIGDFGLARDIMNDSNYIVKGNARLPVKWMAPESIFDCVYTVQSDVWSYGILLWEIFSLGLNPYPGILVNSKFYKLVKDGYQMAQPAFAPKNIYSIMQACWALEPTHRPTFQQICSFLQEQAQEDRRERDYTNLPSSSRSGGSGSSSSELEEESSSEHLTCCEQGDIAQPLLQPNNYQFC

[7] = Cmax in Sprague-Dawley rat at 25 mg/kg, po; format: ADME, organism-based; set-up: dose 25 mg/kg, route oral; settings: in vivo
[8] = AUC in Sprague-Dawley rat at 25 mg/kg, po; format: ADME, organism-based; settings: in vivo
MV4-11 [9] = test: Induction of apoptosis in human MV4-11 cells assessed as viable cells at 20 nM incubated for 48 hrs by annexin V and 7-AAD staining based flow cytometry analysis (reference value: 90.47 %); format: functional; settings: MV4-11, 48 h, read-out: Activity
MV4-11 [10] = test: Induction of apoptosis in human MV4-11 cells assessed as late apoptotic cells at 20 nM incubated for 48 hrs by annexin V and 7-AAD staining based flow cytometry analysis (reference value: 2.25 %); format: functional
[11] = target: Proto-oncogene tyrosine-protein kinase receptor Ret (Homo sapiens, UniProt P07949)
Chain of Proto-oncogene tyrosine-protein kinase receptor Ret (P07949 whole entry): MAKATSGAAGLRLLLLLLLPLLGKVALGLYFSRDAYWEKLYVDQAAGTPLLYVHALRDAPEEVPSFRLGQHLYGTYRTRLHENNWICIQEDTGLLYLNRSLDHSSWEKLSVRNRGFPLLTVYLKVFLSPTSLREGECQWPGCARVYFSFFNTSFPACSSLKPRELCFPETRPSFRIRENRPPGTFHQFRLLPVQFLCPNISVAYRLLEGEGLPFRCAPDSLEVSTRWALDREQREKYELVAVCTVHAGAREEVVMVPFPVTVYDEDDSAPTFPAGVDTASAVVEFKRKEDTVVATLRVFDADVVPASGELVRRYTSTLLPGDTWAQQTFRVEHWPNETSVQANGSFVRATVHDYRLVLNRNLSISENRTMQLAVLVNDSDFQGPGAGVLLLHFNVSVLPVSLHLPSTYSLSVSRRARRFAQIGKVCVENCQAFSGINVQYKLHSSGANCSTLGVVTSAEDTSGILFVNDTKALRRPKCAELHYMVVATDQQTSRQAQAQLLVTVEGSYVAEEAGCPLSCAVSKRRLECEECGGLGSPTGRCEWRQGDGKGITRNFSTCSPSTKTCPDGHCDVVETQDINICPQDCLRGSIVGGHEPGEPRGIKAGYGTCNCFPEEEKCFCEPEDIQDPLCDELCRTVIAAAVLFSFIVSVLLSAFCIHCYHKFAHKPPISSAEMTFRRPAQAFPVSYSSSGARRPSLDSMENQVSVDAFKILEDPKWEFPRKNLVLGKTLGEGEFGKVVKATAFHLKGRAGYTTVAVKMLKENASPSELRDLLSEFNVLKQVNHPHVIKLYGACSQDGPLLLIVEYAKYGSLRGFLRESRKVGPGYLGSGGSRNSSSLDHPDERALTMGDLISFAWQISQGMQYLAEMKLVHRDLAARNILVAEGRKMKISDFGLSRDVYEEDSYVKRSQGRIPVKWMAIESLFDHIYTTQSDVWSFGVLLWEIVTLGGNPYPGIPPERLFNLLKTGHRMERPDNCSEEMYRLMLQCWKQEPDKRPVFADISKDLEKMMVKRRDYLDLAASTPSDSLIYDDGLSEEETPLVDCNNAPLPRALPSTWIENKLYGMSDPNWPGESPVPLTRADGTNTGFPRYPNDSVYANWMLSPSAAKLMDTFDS
Description: Binding affinity to recombinant human RET (713 to 1014 residues) expressed in bacterial expression system by Kinomescan method

MV4-11 [12] = test: Induction of cell cycle arrest in human MV4-11 cells assessed as reduction in Cyclin D2 expression at 0.16 to 100 nM by Western blot analysis; format: functional, cell-based
[13] = target: Receptor-type tyrosine-protein kinase FLT3 (Homo sapiens, UniProt P36888, F691L/ITD)
Chain of Receptor-type tyrosine-protein kinase FLT3 (Homo sapiens, UniProt P36888, F691L/ITD) (P36888 whole entry, looked up, stated change not applied): as the sequence (P36888 whole entry, looked up, change not shown) above
Description: Binding affinity to recombinant human FLT3 ITD/F691L double mutant expressed in bacterial expression system by Kinomescan method

MV4-11 [14] = test: Induction of apoptosis in human MV4-11 cells assessed as late apoptotic cells at 4 nM incubated for 48 hrs by annexin V and 7-AAD staining based flow cytometry analysis (reference value: 2.25 %); format: functional
MV4-11 [15] = test: Induction of apoptosis in human MV4-11 cells assessed as late apoptotic cells at 100 nM incubated for 48 hrs by annexin V and 7-AAD staining based flow cytometry analysis (reference value: 2.25 %); format: functional
KG-1 = test: cells; settings: Homo sapiens, KG-1, 72 h
Description: Cytotoxicity against human KG1 cells assessed as reduction in cell viability incubated for 72 hrs by CCK8 assay

HL-60 = test: cells; settings: Homo sapiens, HL-60, 72 h
Description: Cytotoxicity against human HL60 cells assessed as reduction in cell viability incubated for 72 hrs by CCK8 assay

MV4-11 [16] = test: Induction of apoptosis in human MV4-11 cells assessed as necrotic cells at 100 nM incubated for 48 hrs by annexin V and 7-AAD staining based flow cytometry analysis (reference value: 0.91 %); format: functional
MV4-11 [17] = test: Induction of cell cycle arrest in human MV4-11 cells assessed as S phase at 4 nM incubated for 48 hrs by propidium iodide staining based flow cytometry analysis (reference value: 20.14 %); format: functional
MV4-11 [18] = test: Induction of cell cycle arrest in human MV4-11 cells assessed as G0/G1 phase at 20 nM incubated for 48 hrs by propidium iodide staining based flow cytometry analysis (reference value: 54.82 %); format: functional
[19] = Toxicity in CB17-SCID mouse xenografted with human MV4-11 cells assessed as side effects at 10 to 40 mg/kg, po administered for 10 days and observed on day 10; format: organism-based; settings: in vivo, 240 h
MV4-11 [20] = test: Induction of cell cycle arrest in human MV4-11 cells assessed as G0/G1 phase at 100 nM incubated for 48 hrs by propidium iodide staining based flow cytometry analysis (reference value: 54.82 %); format: functional
[21] = Clearance in Sprague-Dawley rat at 25 mg/kg, po; format: ADME, organism-based; settings: in vivo
[22] = system: Receptor-type tyrosine-protein kinase FLT3 (Homo sapiens), P36888 [UNDEFINED MUTATION]; test: Inhibition of FLT3 ITD mutant expressed in human MV4-11 cells assessed as reduction in STAT5 level at 4 nM incubated for 6 hrs by Western blot analysis; format: cell-based
Chain of Receptor-type tyrosine-protein kinase FLT3 (Homo sapiens), P36888 [UNDEFINED MUTATION] (P36888 whole entry, looked up, change not shown): as above

[23] = system: Receptor-type tyrosine-protein kinase FLT3 (Homo sapiens), P36888 [UNDEFINED MUTATION]; settings: MV4-11
Description: Inhibition of FLT3 ITD mutant expressed in human MV4-11 cells assessed as reduction in cell growth incubated for 72 hrs by CCK8 assay

MV4-11 [24] = test: Induction of apoptosis in human MV4-11 cells assessed as early apoptotic cells at 4 nM incubated for 48 hrs by annexin V and 7-AAD staining based flow cytometry analysis (reference value: 6.36 %); format: functional
in vitro = settings: mouse, BaF3 cells
Description: Cytotoxicity against human BAF3 cells assessed as growth inhibition incubated for 72 hrs by CCK8 assay

[25] = target: Mast/stem cell growth factor receptor Kit (Homo sapiens, UniProt P10721)
Chain of Mast/stem cell growth factor receptor Kit (P10721 whole entry): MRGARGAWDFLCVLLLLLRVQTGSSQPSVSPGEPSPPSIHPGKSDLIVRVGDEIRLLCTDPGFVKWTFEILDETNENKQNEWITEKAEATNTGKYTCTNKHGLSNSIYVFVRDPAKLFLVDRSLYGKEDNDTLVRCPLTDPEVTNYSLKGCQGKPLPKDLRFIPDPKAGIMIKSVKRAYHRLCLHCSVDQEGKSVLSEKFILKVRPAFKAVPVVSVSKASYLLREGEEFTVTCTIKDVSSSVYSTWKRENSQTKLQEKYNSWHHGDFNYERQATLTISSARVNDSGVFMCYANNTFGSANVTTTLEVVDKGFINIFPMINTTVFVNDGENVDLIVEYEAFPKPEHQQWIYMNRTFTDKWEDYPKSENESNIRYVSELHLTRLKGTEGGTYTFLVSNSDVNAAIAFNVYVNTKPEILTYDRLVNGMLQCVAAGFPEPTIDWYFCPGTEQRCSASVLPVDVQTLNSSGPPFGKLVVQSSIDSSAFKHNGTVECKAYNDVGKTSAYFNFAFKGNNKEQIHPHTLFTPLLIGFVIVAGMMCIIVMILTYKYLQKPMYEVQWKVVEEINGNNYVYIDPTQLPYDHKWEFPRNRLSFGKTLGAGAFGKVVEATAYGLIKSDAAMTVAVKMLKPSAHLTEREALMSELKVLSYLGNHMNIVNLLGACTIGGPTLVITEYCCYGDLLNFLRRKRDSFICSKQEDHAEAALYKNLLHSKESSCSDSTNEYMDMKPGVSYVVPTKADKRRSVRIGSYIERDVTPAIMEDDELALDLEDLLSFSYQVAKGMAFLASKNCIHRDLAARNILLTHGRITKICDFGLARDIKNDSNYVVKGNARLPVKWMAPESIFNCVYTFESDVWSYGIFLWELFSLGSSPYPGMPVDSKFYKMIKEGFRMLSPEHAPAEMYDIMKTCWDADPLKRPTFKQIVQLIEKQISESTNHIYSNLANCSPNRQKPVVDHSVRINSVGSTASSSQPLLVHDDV
Description: Binding affinity to recombinant human KIT (571 to 972 residues) expressed in bacterial expression system by Kinomescan method

[26] = system: Receptor-type tyrosine-protein kinase FLT3 (Homo sapiens), P36888 [UNDEFINED MUTATION]; test: Inhibition of FLT3 ITD mutant expressed in human MV4-11 cells assessed as reduction in FLT3 phosphorylation at 0.8 to 500 nM incubated for 6 hrs by Western blot analysis; format: cell-based

With `CC(C)(C)c1cc(NC(=O)Nc2ccc(-c3cn(-c4ccc(OCCN5CCOCC5)cc4Cl)nn3)cc2)no1` the GI50 (MOLM-13) was 5.9 nM, the Activity (MV4-11 [1]) was 18.42% and the IC50 [2] was 32.8 nM. It also gave an Activity (MV4-11 [3]) of 10.62%, an Activity (MV4-11 [4]) of 13.06% and a Kd [5] of 6.9 nM. For the same molecule, the Kd [6] was 100 nM, the Cmax [7] was 3220 ng/mL and the AUC [8] was 41300 ng·h/mL. For the same molecule, the viability at 0.02 µM (MV4-11 [9]) was 84%, the Activity (MV4-11 [10]) was 4.31% and the Kd [11] was 24 nM. For the same molecule, the Activity (MV4-11 [12]) was “Active”, the Kd [13] was 2400 nM and the Activity (MV4-11 [14]) was 2.64%. For the same molecule, the Activity (MV4-11 [15]) was 12.1%, the GI50 (KG-1) was > 3000 nM and the GI50 (HL-60) was > 3000 nM. The Activity (MV4-11 [16]) was 3.25%, the Activity (MV4-11 [17]) was 15.39% and the Activity (MV4-11 [18]) was 87.8%. For the same molecule, the Activity [19] was “Non-Toxic”, the Activity (MV4-11 [20]) was 89.92% and the CL/F [21] was 10.6 mL/min/kg. For the same molecule, the inhibition [22] was “Active”, the GI50 [23] was 3 nM and the Activity (MV4-11 [24]) was 7.51%. For the same molecule, the GI50 at 72 h (in vitro) was > 3000 nM, the Kd [25] was 21 nM and the inhibition [26] was “Active”.
